These results are taken from patent publication US12304890B2, “R-type pyridyloxycarboxylic acid, salt and ester derivative thereof, and preparation method therefor, and herbicidal composition and application thereof” (Qingdao Kingagroot Chemical Compound Co., Ltd., priority 2018, dated 2025).

SMILES strings stand for the structures.

What all share (format): in vivo
One test concerns Echinochloa crusgalli. Kind of test: Post-emergence test experiment, Echinochloa crusgalli. To be noted: 1000 g a.i./ha, 3 weeks in greenhouse, fresh weight inhibition. The gist of the method: (§1)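 Greenhouse-grown plants sprayed at the 2-3 leaf stage, 2 weeks after sowing, with compound in acetone/tween-80 diluted in water plus 1.5 L/ha methyl oleate emulsifiable concentrate as synergist. Effect scored 3 weeks later as fresh weight inhibition rate.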

Another test concerns Digitaria sanguinalis. Kind of test: Post-emergence test experiment, Digitaria sanguinalis. To be noted: 1000 g a.i./ha, 3 weeks in greenhouse, fresh weight inhibition. A digest of the protocol: as §1
Test [1] relates to Monocotyledonous and dicotyledonous weed seeds and main crop seeds. Kind of test: Post-emergence test experiment, other weeds and crops (Table 4, 1000 g a.i./ha). The note with it: 3 weeks in greenhouse, fresh weight inhibition. A digest of the protocol: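 Weed and crop seeds (wheat, corn, rice, soybean, cotton, oilseed, millet, sorghum) sown in soil pots in a greenhouse and sprayed at 2-3 leaf stage, 2 weeks after sowing. Compound in acetone/tween-80 with methyl oleate concentrate (1.5 L/ha) as synergist. Effect recorded as fresh-weight growth inhibition rate.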

As for `CC(C)CCCSC(=O)[C@@H](C)Oc1nc(F)c(Cl)c(N)c1Cl` [Compound 2-108], in the test with Echinochloa crusgalli, the “Activity level (growth inhibition rate), Echinochloa crusgalli” value is recorded as 5 (Level 5: the growth inhibition rate is greater than 85%). Moreover, in the test on Digitaria sanguinalis, the “Activity level (growth inhibition rate), Digitaria sanguinalis” value is reported as 5 (Level 5: the growth inhibition rate is greater than 85%). Moreover, in test [1], the “Activity level (growth inhibition rate), Abutilon theophrasti Medic.” value is on record as 5 (Level 5: the growth inhibition rate is greater than 85%); the “Activity level (growth inhibition rate), Galium aparine” value is 5 (Level 5: the growth inhibition rate is greater than 85%); the “Activity level (growth inhibition rate), Monochoria Vaginalis” value is listed as 5 (Level 5: the growth inhibition rate is greater than 85%).

In the case of `CCCCC(C)SC(=O)[C@@H](C)Oc1nc(F)c(Cl)c(N)c1Cl` (stereo partly drawn) [Compound 2-114], the “Activity level (growth inhibition rate), Echinochloa crusgalli” value in the test with Echinochloa crusgalli was 5 (Level 5: the growth inhibition rate is greater than 85%). Besides, the “Activity level (growth inhibition rate), Digitaria sanguinalis” value in the test on Digitaria sanguinalis is listed as 5 (Level 5: the growth inhibition rate is greater than 85%). Moreover, in test [1], the “Activity level (growth inhibition rate), Abutilon theophrasti Medic.” value was 5 (Level 5: the growth inhibition rate is greater than 85%); the “Activity level (growth inhibition rate), Galium aparine” value is recorded as 5 (Level 5: the growth inhibition rate is greater than 85%); the “Activity level (growth inhibition rate), Monochoria Vaginalis” value was 5 (Level 5: the growth inhibition rate is greater than 85%).

In the case of `CCCCCCCSC(=O)[C@@H](C)Oc1nc(F)c(Cl)c(N)c1Cl` [Compound 2-122], in the test with Echinochloa crusgalli, the “Activity level (growth inhibition rate), Echinochloa crusgalli” value is 5 (Level 5: the growth inhibition rate is greater than 85%). Further, in the test with Digitaria sanguinalis, the “Activity level (growth inhibition rate), Digitaria sanguinalis” value is on record as 5 (Level 5: the growth inhibition rate is greater than 85%). Also, in test [1], the “Activity level (growth inhibition rate), Abutilon theophrasti Medic.” value is given as 5 (Level 5: the growth inhibition rate is greater than 85%); the “Activity level (growth inhibition rate), Galium aparine” value was 5 (Level 5: the growth inhibition rate is greater than 85%); the “Activity level (growth inhibition rate), Monochoria Vaginalis” value is recorded as 5 (Level 5: the growth inhibition rate is greater than 85%).

In the case of `CCCCCCCCOC(=O)[C@@H](C)Oc1nc(F)c(Cl)c(N)c1Cl` [Compound 2-155], the “Activity level (growth inhibition rate), Echinochloa crusgalli” value in the test with Echinochloa crusgalli is listed as 5 (Level 5: the growth inhibition rate is greater than 85%). Also, in the test on Digitaria sanguinalis, the “Activity level (growth inhibition rate), Digitaria sanguinalis” value is 5 (Level 5: the growth inhibition rate is greater than 85%). Besides, in test [1], the “Activity level (growth inhibition rate), Abutilon theophrasti Medic.” value is recorded as 5 (Level 5: the growth inhibition rate is greater than 85%); the “Activity level (growth inhibition rate), Galium aparine” value was 5 (Level 5: the growth inhibition rate is greater than 85%); the “Activity level (growth inhibition rate), Monochoria Vaginalis” value was 5 (Level 5: the growth inhibition rate is greater than 85%).

Take `CCCCCCCCSC(=O)[C@@H](C)Oc1nc(F)c(Cl)c(N)c1Cl` [Compound 2-156]: the “Activity level (growth inhibition rate), Echinochloa crusgalli” value with Echinochloa crusgalli is 5 (Level 5: the growth inhibition rate is greater than 85%). The “Activity level (growth inhibition rate), Digitaria sanguinalis” value with Digitaria sanguinalis is 5 (Level 5: the growth inhibition rate is greater than 85%). Besides, in test [1], the “Activity level (growth inhibition rate), Abutilon theophrasti Medic.” value is reported as 5 (Level 5: the growth inhibition rate is greater than 85%); the “Activity level (growth inhibition rate), Galium aparine” value is 5 (Level 5: the growth inhibition rate is greater than 85%); the “Activity level (growth inhibition rate), Monochoria Vaginalis” value is listed as 5 (Level 5: the growth inhibition rate is greater than 85%).

For `CCCCC(CC)COC(=O)[C@@H](C)Oc1nc(F)c(Cl)c(N)c1Cl` (stereo partly drawn) [Compound 2-157], the “Activity level (growth inhibition rate), Echinochloa crusgalli” value with Echinochloa crusgalli was 5 (Level 5: the growth inhibition rate is greater than 85%). The “Activity level (growth inhibition rate), Digitaria sanguinalis” value in the test with Digitaria sanguinalis is given as 5 (Level 5: the growth inhibition rate is greater than 85%). For the same compound, in test [1], the “Activity level (growth inhibition rate), Abutilon theophrasti Medic.” value is listed as 5 (Level 5: the growth inhibition rate is greater than 85%); the “Activity level (growth inhibition rate), Galium aparine” value was 5 (Level 5: the growth inhibition rate is greater than 85%); the “Activity level (growth inhibition rate), Monochoria Vaginalis” value is listed as 5 (Level 5: the growth inhibition rate is greater than 85%).

As to `CCCCC(CC)CSC(=O)[C@@H](C)Oc1nc(F)c(Cl)c(N)c1Cl` (stereo partly drawn) [Compound 2-158], in the test on Echinochloa crusgalli, the “Activity level (growth inhibition rate), Echinochloa crusgalli” value was 5 (Level 5: the growth inhibition rate is greater than 85%). Further, the “Activity level (growth inhibition rate), Digitaria sanguinalis” value in the test with Digitaria sanguinalis is 5 (Level 5: the growth inhibition rate is greater than 85%). Besides, in test [1], the “Activity level (growth inhibition rate), Abutilon theophrasti Medic.” value is 5 (Level 5: the growth inhibition rate is greater than 85%); the “Activity level (growth inhibition rate), Galium aparine” value is 5 (Level 5: the growth inhibition rate is greater than 85%); the “Activity level (growth inhibition rate), Monochoria Vaginalis” value is reported as 5 (Level 5: the growth inhibition rate is greater than 85%).

For `CC(C)CCCCCOC(=O)[C@@H](C)Oc1nc(F)c(Cl)c(N)c1Cl` [Compound 2-159], the “Activity level (growth inhibition rate), Echinochloa crusgalli” value in the test on Echinochloa crusgalli is on record as 5 (Level 5: the growth inhibition rate is greater than 85%). Also, the “Activity level (growth inhibition rate), Digitaria sanguinalis” value in the test with Digitaria sanguinalis is reported as 5 (Level 5: the growth inhibition rate is greater than 85%). Besides, in test [1], the “Activity level (growth inhibition rate), Abutilon theophrasti Medic.” value was 5 (Level 5: the growth inhibition rate is greater than 85%); the “Activity level (growth inhibition rate), Galium aparine” value is 5 (Level 5: the growth inhibition rate is greater than 85%); the “Activity level (growth inhibition rate), Monochoria Vaginalis” value is on record as 5 (Level 5: the growth inhibition rate is greater than 85%).

On to `CC(C)CCCCCSC(=O)[C@@H](C)Oc1nc(F)c(Cl)c(N)c1Cl` [Compound 2-160], for which the “Activity level (growth inhibition rate), Echinochloa crusgalli” value with Echinochloa crusgalli is 5 (Level 5: the growth inhibition rate is greater than 85%). Also, the “Activity level (growth inhibition rate), Digitaria sanguinalis” value in the test on Digitaria sanguinalis was 5 (Level 5: the growth inhibition rate is greater than 85%). In addition, in test [1], the “Activity level (growth inhibition rate), Abutilon theophrasti Medic.” value is given as 5 (Level 5: the growth inhibition rate is greater than 85%); the “Activity level (growth inhibition rate), Galium aparine” value is listed as 5 (Level 5: the growth inhibition rate is greater than 85%); the “Activity level (growth inhibition rate), Monochoria Vaginalis” value is 5 (Level 5: the growth inhibition rate is greater than 85%).

Take `CCCCCCC(C)OC(=O)[C@@H](C)Oc1nc(F)c(Cl)c(N)c1Cl` (stereo partly drawn) [Compound 2-163]: the “Activity level (growth inhibition rate), Echinochloa crusgalli” value in the test with Echinochloa crusgalli is recorded as 5 (Level 5: the growth inhibition rate is greater than 85%). In the test on Digitaria sanguinalis, the “Activity level (growth inhibition rate), Digitaria sanguinalis” value is 5 (Level 5: the growth inhibition rate is greater than 85%). For the same compound, in test [1], the “Activity level (growth inhibition rate), Abutilon theophrasti Medic.” value was 5 (Level 5: the growth inhibition rate is greater than 85%); the “Activity level (growth inhibition rate), Galium aparine” value is recorded as 5 (Level 5: the growth inhibition rate is greater than 85%); the “Activity level (growth inhibition rate), Monochoria Vaginalis” value was 5 (Level 5: the growth inhibition rate is greater than 85%).

As for `CCCCCCC(C)SC(=O)[C@@H](C)Oc1nc(F)c(Cl)c(N)c1Cl` (stereo partly drawn) [Compound 2-164], the “Activity level (growth inhibition rate), Echinochloa crusgalli” value in the test on Echinochloa crusgalli is 5 (Level 5: the growth inhibition rate is greater than 85%). Moreover, in the test with Digitaria sanguinalis, the “Activity level (growth inhibition rate), Digitaria sanguinalis” value is reported as 5 (Level 5: the growth inhibition rate is greater than 85%). Moreover, in test [1], the “Activity level (growth inhibition rate), Abutilon theophrasti Medic.” value is recorded as 5 (Level 5: the growth inhibition rate is greater than 85%); the “Activity level (growth inhibition rate), Galium aparine” value was 5 (Level 5: the growth inhibition rate is greater than 85%); the “Activity level (growth inhibition rate), Monochoria Vaginalis” value is on record as 5 (Level 5: the growth inhibition rate is greater than 85%).

With `CCCCCCCCCOC(=O)[C@@H](C)Oc1nc(F)c(Cl)c(N)c1Cl` [Compound 2-175], the “Activity level (growth inhibition rate), Echinochloa crusgalli” value in the test with Echinochloa crusgalli is recorded as 5 (Level 5: the growth inhibition rate is greater than 85%). Besides, the “Activity level (growth inhibition rate), Digitaria sanguinalis” value in the test with Digitaria sanguinalis is 5 (Level 5: the growth inhibition rate is greater than 85%). In test [1], the “Activity level (growth inhibition rate), Abutilon theophrasti Medic.” value is on record as 5 (Level 5: the growth inhibition rate is greater than 85%); the “Activity level (growth inhibition rate), Galium aparine” value is reported as 5 (Level 5: the growth inhibition rate is greater than 85%); the “Activity level (growth inhibition rate), Monochoria Vaginalis” value was 5 (Level 5: the growth inhibition rate is greater than 85%).

For the compound `CCCCCCCCCSC(=O)[C@@H](C)Oc1nc(F)c(Cl)c(N)c1Cl` [Compound 2-176], the “Activity level (growth inhibition rate), Echinochloa crusgalli” value in the test with Echinochloa crusgalli was 5 (Level 5: the growth inhibition rate is greater than 85%). Moreover, the “Activity level (growth inhibition rate), Digitaria sanguinalis” value in the test on Digitaria sanguinalis is on record as 5 (Level 5: the growth inhibition rate is greater than 85%). Further, in test [1], the “Activity level (growth inhibition rate), Abutilon theophrasti Medic.” value is listed as 5 (Level 5: the growth inhibition rate is greater than 85%); the “Activity level (growth inhibition rate), Galium aparine” value was 5 (Level 5: the growth inhibition rate is greater than 85%); the “Activity level (growth inhibition rate), Monochoria Vaginalis” value was 5 (Level 5: the growth inhibition rate is greater than 85%).

For `CCCCCCCCCCSC(=O)[C@@H](C)Oc1nc(F)c(Cl)c(N)c1Cl` [Compound 2-196], the “Activity level (growth inhibition rate), Echinochloa crusgalli” value in the test with Echinochloa crusgalli is recorded as 5 (Level 5: the growth inhibition rate is greater than 85%). Further, in the test on Digitaria sanguinalis, the “Activity level (growth inhibition rate), Digitaria sanguinalis” value is 5 (Level 5: the growth inhibition rate is greater than 85%). Also, in test [1], the “Activity level (growth inhibition rate), Abutilon theophrasti Medic.” value is reported as 5 (Level 5: the growth inhibition rate is greater than 85%); the “Activity level (growth inhibition rate), Galium aparine” value is on record as 5 (Level 5: the growth inhibition rate is greater than 85%); the “Activity level (growth inhibition rate), Monochoria Vaginalis” value was 5 (Level 5: the growth inhibition rate is greater than 85%).

As for `CCCCCCCCCCCSC(=O)[C@@H](C)Oc1nc(F)c(Cl)c(N)c1Cl` [Compound 2-216], the “Activity level (growth inhibition rate), Echinochloa crusgalli” value in the test on Echinochloa crusgalli is recorded as 5 (Level 5: the growth inhibition rate is greater than 85%). The “Activity level (growth inhibition rate), Digitaria sanguinalis” value in the test on Digitaria sanguinalis is recorded as 5 (Level 5: the growth inhibition rate is greater than 85%). Also, in test [1], the “Activity level (growth inhibition rate), Abutilon theophrasti Medic.” value is on record as 5 (Level 5: the growth inhibition rate is greater than 85%); the “Activity level (growth inhibition rate), Galium aparine” value is given as 5 (Level 5: the growth inhibition rate is greater than 85%); the “Activity level (growth inhibition rate), Monochoria Vaginalis” value is reported as 5 (Level 5: the growth inhibition rate is greater than 85%).
